The text below walks through data of the NIST ThermoML archive (doi:10.1021/acs.jced.8b00142).

± gives the expanded uncertainty stated by the source.

The conditions of data set [1]: 86 kPa, Liquid, Vibrating tube method.
Data set [2] is described as follows: wn = mass fraction of the nth substance listed. To be noted: 86 kPa, Liquid, Vibrating tube method.

For `CCCC[n+]1ccccc1.F[B-](F)(F)F` [1-butylpyridinium tetrafluoroborate], the mass density in data set [1] (298.15 K) came out at 1213.9 ± 4.2 kg/m3; in data set [1] (313.15 K), 1203.8 ± 4.2 kg/m3; in data set [1] (323.15 K) it was 1197 ± 4.2 kg/m3; in data set [1] (333.15 K), 1190.3 ± 4.2 kg/m3; in data set [1] (343.15 K), 1183.6 ± 4.2 kg/m3.
The matching figures for `CN(CCO)CCO` [N-methyldiethanolamine]: 1036.4 ± 4.1 kg/m3, 1025.1 ± 4.1 kg/m3, 1017.5 ± 4.1 kg/m3, 1009.9 ± 4.1 kg/m3 and 1002.2 ± 4.1 kg/m3.
For the molecule `CN(CCO)CCO` [N-methyldiethanolamine] + O, the mass density stood at 1020.5 ± 4 kg/m3 in data set [2] (298.15 K, w1 = 0.2573); 1024.7 ± 4 kg/m3 in data set [2] (298.15 K, w1 = 0.3); 1042.5 ± 4 kg/m3 in data set [2] (298.15 K, w1 = 0.5); 1013.5 ± 4 kg/m3 in data set [2] (313.15 K, w1 = 0.2573); 1017.1 ± 4 kg/m3 in data set [2] (313.15 K, w1 = 0.3); 1032.8 ± 4 kg/m3 in data set [2] (313.15 K, w1 = 0.5). Further, the mass density in data set [2] (323.15 K, w1 = 0.3) amounted to 1009.6 ± 4 kg/m3; in data set [2] (323.15 K, w1 = 0.5), 1026 ± 4 kg/m3; in data set [2] (333.15 K, w1 = 0.3) it was 1002.7 ± 4 kg/m3; in data set [2] (333.15 K, w1 = 0.5) it was 1018.7 ± 4 kg/m3; in data set [2] (343.15 K, w1 = 0.3) it was 995.1 ± 4 kg/m3; in data set [2] (343.15 K, w1 = 0.5), 1011.2 ± 4 kg/m3. In addition, the mass density in data set [2] (348.17 K, w1 = 0.2573) stood at 988.9 ± 4 kg/m3.
